Holding throughout (assay type): cell-based, mouse
The test system of assay [1] is tumor-exposed NK cell-MMTV-PyMT tumor cluster co-culture. In words: teNK cell-MMTV-PyMT tumor cluster co-culture colony formation assay. The conditions noted are these: teNK cells pretreated with DNMT inhibitor at 1 μM for 24 hours before co-culture; FIG. 5C. The source says: The capacity of candidate immunotherapies to reverse the effect of teNK cells on colony formation was investigated. Anti-PD-1 therapy has been reported to restore the function of anergic NK cells (Hsu J, et al. J Clin Invest. 2018; 128(10):4654-68). […] Targeted receptors were next identified in the RNA expression analysis, specifically TIGIT and KLRG1. TIGIT is an emerging immune checkpoint on NK cells and T cells and anti-TIGIT therapies are in clinical trials (Zhang Q, et al. Blockade of the checkpoint receptor TIGIT prevents NK cell exhaustion and elicits potent anti-tumor immunity. Nat Immunol. 2018; 19(7):723-32). KLRG1, a marker of senescent NK cells and T cells and a recently reported inhibitor of NK cell function (Muller-Durovic B, et al. J Immunol. 2016; 197(7):2891-9), was highly expressed by teNK cells. […] The broad gene expression differences between hNK and teNK cells provided the motivation to identify epigenetic regulators of NK cell state. […] Experiments were then carried out seeking to validate the functional significance of these findings in the co-culture models. […] It was assessed whether the combination of FDA approved DNA methyltransferase inhibitors and anti-TIGIT or anti-KLRG1 would prevent colonies from being formed in co-culture. […]

A further assay deals with KLRG1. In words: RT-qPCR of KLRG1 in teNK cells treated with DNMT inhibitors. The conditions noted are these: teNK cells pretreated with DNMT inhibitor; FIG. 10F. The source says:
(§1) Natural killer cell isolation. Primary splenocytes were isolated by mechanical dissociation from spleens of wild-type FVB/n, MMTV-PyMT, or C3(1)-Tag mice, or from the tumors of MMTV-PyMT mice. NK cells isolated from WT FVB/n mice are defined as healthy NK (hNK) cells and those isolated from tumor bearing mice are defined as tumor-exposed NK (teNK) cells. NK cells isolated from MMTV-PyMT tumors are defined as tumor-infiltrating NK cells. The NK cells were purified from isolated splenocytes using EasySep Mouse NK Cell Isolation Kit per the manufacturer's protocol (#19855; Stemcell Technologies). The isolated cells were then positively selected by FACS by gating on CD49b+/CD3− cells and CD45+/CD49b+/CD3− for NK cells isolated from tumors. NK cells were cultured in media at 37° C. containing 200 U/ml recombinant mouse IL-2 (#402-ML-100, R&D Systems), 5 ng/ml recombinant mouse IL-15 (#447-ML-010, R&D Systems) or 5 ng/ml recombinant mouse IL-I5:IL-15R complex (#14-8152-62, Thermo Fisher) for 16 h before use in assays. […]
(§2) RNA Extraction and Quantitative PCR. […] Quantitative PCR was conducted using the SsoAdvanced Universal SYBR Green Supermix (BioRad #1725271) with 500 pg cDNA and 500 nM primers per reaction. […] Target gene expression values were normalized to GAPDH expression and fold change was calculated as 2-ΔΔCt. […]
Background: In qPCR the cycle at which signal appears reflects the starting amount.

In a further assay the test system is TIGIT. Briefly: RT-qPCR of TIGIT in teNK cells treated with DNMT inhibitors. As to conditions: teNK cells pretreated with DNMT inhibitor; FIG. 10F.
From the text: as §1, §2

The results in this text go back to US20230357722A1, “METHODS FOR IDENTIFYING MODULATORS OF NATURAL KILLER CELL INTERACTIONS” (The Johns Hopkins University, priority 2020, published 2023).

In the case of `Nc1ncn([C@@H]2O[C@H](CO)[C@@H](O)[C@H]2O)c(=O)n1` [azacitidine], the “colony formation (normalized colony count)” value in assay [1] is “neutralized the effect of teNK cells in co-culture”. The “gene expression of KLRG1 by qPCR” value in the assay with KLRG1 is “reduced gene expression of TIGIT and KLRG1”. The “gene expression of TIGIT by qPCR” value in the assay on TIGIT is “reduced gene expression of TIGIT”.
